Common to all, as to type: cell-based
For assay [1], the system named is Escherichia coli strain Mach1-T1^R containing pSMART-LCKAN empty vector. Nature of the assay: Growth confirmations: media supplementation in presence of 3-HP. The conditions noted are these: for effect on specific growth in the presence of 3-HP: supplementation of the growth medium, 3-HP present. The text has this: Some methods concern wild-type Escherichia coli K12 (ATCC # 29425) used for the preparation of genomic DNA. Genomic libraries were constructed using the pSMART-LCKAN (Lucigen, Middleton, Wis.). Libraries were introduced into Escherichia coli strain Mach1-T1^R (Invitrogen, Carlsbad, Calif.) for selections as previously detailed. Mach1-T1^R containing pSMART-LCKAN empty vector were used for all control studies. Growth curves were done in MOPS Minimal Media. In this example, the antibiotic concentration was 20 ug kanamycin/mL.
Overnight cultures of Mach1-T1^R+pSMART LC-KAN were inoculated into 5 mL LB+kanamycin. Growth curves were constructed by inoculating into 15 mL screw cap tubes containing supplements (Table 1) and 15 mL MOPS Minimal Media+kanamycin+3-HP from overnight culture. Cultures were incubated at 37° C. and optical density was monitored to an OD600>0.2. Cultures were then diluted to an exact OD600=0.2 and were used to inoculate cultures containing 15 mL MOPS Minimal Media+kanamycin+3-HP (pH=7.0) to an initial optical density of […] in order to minimize effects of growth in stationary phase. Optical density was monitored and recorded over the entire range of microaerobic growth in minimal media, or until a final OD600 0.5-0.6. Growth parameters were evaluated in terms of specific growth, OD600 at the culmination of the growth phase (approximately 14 hours), and OD600 at conclusion of maximum growth phase and final OD600 (24 hrs). To address specific intermediate limitations, associated chorismate pathway supplements were added to final concentrations listed in Table 1.
To confirm these findings, the culture medium was supplemented with products synthesized downstream of chorismate. The addition of each product individually stimulated growth, further confirming that the inhibition is occurring at, or prior to synthesis of chorismate (FIG. 3B). FIG. 3B represents growth confirmations: addition of products downstream of chorismate partially alleviate growth inhibition confirmed by increased specific growth (black) and increased OD600 at the culmination of the growth phase (grey). However, increasing the supplementation of several downstream products (tyrosine, phenylalanine, tryptophan) results in feedback inhibition of the first committed step to the chorismate super-pathway and will therefore reduce formation of other downstream products including ubiquinone, meniquinone, and tetrahydrofolate and limit the associated growth benefits.

In assay [2] the test system is E. coli Mach1. Nature of the assay: Minimum inhibitory concentration of acrylic acid in minimal media. The note with it: Escherichia coli. On the procedure:
3-HP composition obtained, for example, from TCI America for initial library selections and all subsequent growth confirmations can contain variable amounts of acrylic acid contamination. A minimum inhibitory concentration of acrylic acid for E. coli Mach1 grown in minimal media was determined to be around 0.6 g/L. In support that the tolerance mechanism specific to the chorismate super-pathway are exclusive to 3-HP toxicity, the minimum inhibitory concentrations of acrylic acid was determined to be 0.6 g/L for E. coli Mach1 grown in minimal media supplemented with addition of shikimate or homocysteine. Additionally, the minimal inhibitory concentration was determined to be 0.6 g/L for the feedback resistant aroH mutants grown in minimal media.

The subject of assay [3] is bacterial culture capable of producing 3-HP. Nature of the assay: 3-HP production with exogenously added tyrosine. The note with it: 0.2 mM tyrosine added to culture. On the procedure:
In certain embodiments, exogenously added tyrosine can be added to a bacterial culture capable of producing 3-HP. In certain particular embodiments, tyrosine concentrations can be about 0.05 mM to about 0.5 mM. In one example, 0.2 mM tyrosine was added to a culture and the increase in 3-HP production was about 35%.

For assay [4], the system named is E. coli (vector control; clone expressing aroH mutant). The assay is described as follows: 24 hour minimum inhibitory concentration of 3-HP in M9 minimal media. The note with it: Escherichia coli. How it is done:
By use of the SCALEs methodology, a number of genetic targets for alleviating growth inhibition in the presence of 3-HP have been identified. […] A clone was constructed containing the tyrA-aroF operon and was cultured in the presence of 20 g/L 3-HP. Increased copy of this region partially alleviated growth inhibition, conferring a 15% increase in specific growth. […] One method to bypass this inherent control was obtaining an inducible feedback resistant aroH mutant that will increase the conversion of E-4-P while maintaining activity in the presence of increasing pools of downstream products, thus alleviating growth inhibition due to impaired synthesis of necessary byproducts of the chorismate pathway. […] In addition, the 24 hour minimum inhibitory concentration of 3-HP (the minimum concentration to stop visible growth at 24 hours) in M9 minimal media increased from 25 g/L for a vector control to 40 g/L for an E. coli clone expressing this aroH mutant. In certain embodiments herein, it is contemplated that the aroH mutant can be of use alone, or in combination with other genetic manipulations or selection to increase tolerance of 3-HP production in microorganisms.

Values after ≈ are worked out from the molar mass of the structure shown. Read-outs that look alike come from different tables or passages of the source.

For the molecule `N[C@@H](Cc1ccccc1)C(=O)O` [Phenylalanine, phenylalanine], the “effect on specific growth in the presence of 3-HP” value (from here on “effect on specific growth”) in assay [1] was “detrimental effect”.

With `C=CC(=O)O` [acrylic acid], the MIC is 600 mg/L (≈ 8.33 mM) in assay [2] (MACH1, E. coli Mach1, minimal media supplemented with shikimate or homocysteine, read-out: minimum inhibitory concentration); approximately 600 mg/L (≈ 8.33 mM) in assay [2] (MACH1, E. coli Mach1 grown in minimal media, read-out: minimum inhibitory concentration); 600 mg/L (≈ 8.33 mM) in assay [2] (MACH1, read-out: minimal inhibitory concentration, feedback resistant aroH mutants grown in minimal media).

Take `N[C@@H](Cc1ccc(O)cc1)C(=O)O` [Tyrosine, tyrosine]: in assay [1], the “effect on specific growth” value was “beneficial effect”. For the same molecule, in assay [3], the “increase in 3-HP production” value is “about 35%”.

In the case of `O=C(O)CCO` [3-HP, 3-hydroxypropionic acid], the MIC was found to be 40000 mg/L in assay [4] (read-out: 24 hour minimum inhibitory concentration (minimum concentration to stop visible growth at 24 hours), M9 minimal media, E. coli clone expressing feedback resistant aroH mutant) and 25000 mg/L in assay [4] (read-out: 24 hour minimum inhibitory concentration (minimum concentration to stop visible growth at 24 hours), M9 minimal media, vector control).

For the molecule `O=C(O)C1=C[C@@H](O)[C@@H](O)[C@H](O)C1` [Shikimate, shikimate], in assay [1] (addition of shikimate to growth media under 3-HP stress), the “regeneration of growth compared with wild-type growth” value is given as “about 20%”. For the same molecule, the “effect on specific growth” value in assay [1] was “dramatic increase in growth”.

These data come from patent publication US20100210017A1, “COMPOSITIONS AND METHODS FOR ENHANCING TOLERANCE FOR THE PRODUCTION OF ORGANIC CHEMICALS PRODUCED BY MICROORGANISMS” (priority 2007, published 2010).
